Test results published in ChEMBL document CHEMBL3044875, “Synthesis and antimicrobial activity of some bisoctahydroxanthene-1,8-dione derivatives” (2011).

Tests used:
Type in all cases: functional
[1] = tested on: Staphylococcus epidermidis; experiment: Antibacterial activity against Staphylococcus epidermidis ATCC 12228 at 10 ug/disk after 24 hr by disk diffusion method; settings: ATCC 12228, 24 h, read-out: DIZ
[2] = tested on: Escherichia coli; experiment: Antibacterial activity against Escherichia coli ATCC 25922 at 10 ug/disk after 24 hr by disk-diffusion method; settings: ATCC 25922, 24 h, read-out: DIZ
[3] = tested on: Staphylococcus aureus; experiment: Antibacterial activity against Staphylococcus aureus ATCC 25923 at 10 ug/disc after 24 hr by disk diffusion method; settings: ATCC 25923, 24 h, read-out: DIZ
[4] = tested on: Bacillus cereus; experiment: Antibacterial activity against Bacillus cereus NRRL 3711 at 10 ug/disk after 24 hr by disk diffusion method; settings: NRRL 3711, 24 h, read-out: DIZ
[5] = tested on: Pseudomonas aeruginosa; experiment: Antibacterial activity against Pseudomonas aeruginosa ATCC 27853 at 10 ug/disk after 24 hr by disk-diffusion method; settings: ATCC 27853, 24 h, read-out: DIZ
[6] = tested on: Proteus vulgaris; experiment: Antibacterial activity against Proteus vulgaris NRRL-B-123 at 10 ug/disk after 24 hr by disk diffusion method; settings: NRRL-B-123, 24 h, read-out: DIZ
[7] = tested on: Nocardia; experiment: Antibacterial activity against Nocardia canis at 10 ug/disk after 24 hr by disk diffusion method; settings: read-out: DIZ

CN(C)[C@@H]1C(O)=C(C(N)=O)C(=O)[C@@]2(O)C(O)=C3C(=O)c4c(O)cccc4[C@@](C)(O)[C@H]3C[C@@H]12 [TETRACYCLINE]
zone of inhibition at 10 µg/disc [1]: 15 mm
zone of inhibition at 10 µg/disc [2]: 25 mm
zone of inhibition at 10 µg/disc [3]: 40 mm
zone of inhibition at 10 µg/disc [4]: 28 mm
zone of inhibition at 10 µg/disc [5]: 13 mm
zone of inhibition at 10 µg/disc [6]: 15 mm
zone of inhibition at 10 µg/disc [7]: 14 mm
